Seven compounds from US20180305299A1, “N-(2-FLUORO-2-PHENETHYL)CARBOXAMIDES AS NEMATICIDES AND ENDOPARASITICIDES” (priority 2013, published 2018) can be followed below.

Counter-ions that a name gives are not always drawn. Like-named read-outs stand apart in the source and are kept apart here.

The test system of data set [1] is Cooperia curticei. Briefly: Cooperia curticei test (COOPCU), larval mortality. Conditions: 120 h; for Emax at 0.8 ppm: read-out: % Efficacy COOPCU; for mortality at 20 ppm: read-out: activity (larval mortality, efficacy). How it is done:
Cooperia curticei—Test (COOPCU)
(§1) Solvent: dimethyl sulfoxide
(§2) To produce a suitable preparation of active compound, 10 mg of active compound are dissolved in 0.5 ml solvent, and the concentrate is diluted with “Ringer's solution” to the desired concentration.
Approximately 40 nematode larvae (Cooperia curticei) are transferred into a test tube containing the compound solution.
After 5 days percentage of larval mortality is recorded. 100% efficacy means all larvae are killed; 0% efficacy means no larvae are killed.
Cooperia curticei—Test (COOPCU) Solvent: dimethyl sulfoxide

The test system of data set [2] is Haemonchus contortus. Briefly: Haemonchus contortus test (HAEMCO), larval mortality. The note with it: 120 h; for Emax at 0.8 ppm: 5 dat, read-out: % Efficacy HAEMCO; for mortality at 20 ppm: application rate 20 ppm, after 5 days, read-out: activity (larval mortality, efficacy). How it is done: Haemonchus contortus—Test (HAEMCO)
as §1, §2
Approximately 40 larvae of the red stomach worm (Haemonchus contortus) are transferred into a test tube containing compound solution.
After 5 days percentage of larval mortality are recorded. 100% efficacy means all larvae are killed, 0% efficacy means no larvae are killed.
Haemonchus contortus—Test (HAEMCO) Solvent: dimethyl sulfoxide

For data set [3], the system named is Heligmosomoides polygyrus. Briefly: Heligmosomoides polygyrus/mouse in vivo efficacy test. The note with it: mice; oral; four consecutive days during early patency; dose not given. How it is done:
Heligmosomoides polygyrus/mouse
Mice, experimentally infected by Heligmosomoides polygyrus, were treated on four consecutive days during early patency. Test compounds were formulated as solutions or suspensions and applied orally.
Efficacy was determined as reduction of worm count in the intestine after necropsy compared to worm count in an infected and placebo-treated control group.

Data set [4] has as its system Meloidogyne incognita. The data set can be described thus: Meloidogyne incognita test (MELGIN), gall formation, solvent acetone. The data set is classed as in vivo. The note with it: application rate 20 ppm; after 14 days. How it is done: (§3) Meloidogyne incognita—Test (MELGIN)
To produce a suitable preparation of active compound, 1 part by weight of active compound is mixed with the stated amount of solvent, and the concentrate is diluted with water to the desired concentration.
Vessels are filled with sand, a solution of the active ingredient, a suspension containing eggs and larvae of the southern root-knot nematode (Meloidogyne incognita) and salad seeds. The salad seeds germinate and the seedlings grow. Galls develop in the roots.
After 14 days the nematicidal activity is determined on the basis of the percentage of gall formation. 100% means that no galls were found; 0% means that the number of galls found on the roots of the treated plants was equal to that in untreated control plants.

Data set [5] has as its system Meloidogyne incognita. Briefly: Meloidogyne incognita test (MELGIN), comparison example, solvent dimethylformamide with emulsifier. It is filed as in vivo. The note with it: 504 h, 21 dat, read-out: % Efficacy MELGIN. How it is done:
as §3
To produce a suitable preparation of active compound, 1 part by weight of active compound is mixed with the stated amount of solvent, and the concentrate is diluted with emulsifier-containing water to the desired concentration.
Vessels are filled with sand, a solution of the active ingredient, a suspension containing eggs and larvae of Meloidogyne incognita and salad seeds. The salad seeds germinate and the seedlings grow. Galls develop on the roots.
After the specified period of time the nematicidal activity is determined on the basis of the percentage of gall formation. 100% means that no galls were found; 0% means that the number of galls found on the roots of the treated plants was equal to that in untreated control plants.

The nature of data set [6]: log P (HPLC-MS). The data set is classed as physicochemical.

A word on the mortality: it is the share of the test organisms that died. In the case of `O=C(NCC(F)(F)c1ccc(Cl)cc1Cl)c1ccccc1C(F)(F)F` [Example 1-1, N-[2-(2,4-dichlorophenyl)-2,2-difluoroethyl]-2-(trifluoromethyl)benzamide], the Emax at 0.8 ppm in data set [1] and in data set [2] was 100% throughout. Moreover, the mortality at 20 ppm in data set [1] and in data set [2] was 100% each time. Besides, in data set [3], the “activity (reduction of worm count in the intestine vs placebo-treated control)” value is given as 65%. Moreover, the “activity (nematicidal, gall formation)” value in data set [4] is 100%. Also, the Emax at 2 ppm in data set [5] came to 95%.

As to `CC(Cc1ccc(Cl)cc1Cl)NC(=O)c1ccccc1C(F)(F)F` (stereo not drawn) [Example 1-32 known from WO-A 2012/118139, reference compound], the Emax at 0.8 ppm came to 0% in data set [1] (0.8 ppm, 5 dat) and 80% in data set [2]. Besides, the Emax at 2 ppm in data set [5] was determined as 15%.

Take `CC(F)(CNC(=O)c1ccccc1C(F)(F)F)c1ccc(Cl)cc1Cl` (stereo not drawn) [Example 1-393, N-[2-(2,4-dichlorophenyl)-2-fluoropropyl]-2-(trifluoromethyl)benzamide]: the mortality at 20 ppm in data set [1] and in data set [2] was 100% throughout. The “activity (nematicidal, gall formation)” value in data set [4] is listed as 100%.

For the compound `O=C(NCC(F)c1ccccc1C(F)(F)F)c1ccccc1C(F)(F)F` (stereo not drawn) [Example 1-399, N-{2-fluoro-2-[2-(trifluoromethyl)phenyl]ethyl}-2-(trifluoromethyl)benzamide], the mortality at 20 ppm in data set [2] turned out to be 100%.

One may read the chromatographic logP as a lipophilicity value derived from retention on a column. High values mean higher lipophilicity, low ones lower lipophilicity. As to `CC(F)(CNC(=O)c1ccccc1C(F)(F)F)c1ccc(Cl)cc1Cl` (stereo not drawn) [Example 1-406, N-[2-(2,4-dichlorophenyl)-2-fluoropropyl]-2-(trifluoromethyl)benzamide], the “activity (nematicidal, gall formation)” value in data set [4] is 100%. The same compound came in with a chromatographic logP in data set [6] of 3.7.

Compound `CC(F)(CN)c1ccc(Cl)cc1Cl` (stereo not drawn) [2-(2,4-dichlorophenyl)-2-fluoropropan-1-amine hydrochloride] registered a chromatographic logP in data set [6] of 0.89.

For `O=C(NCC(F)c1ccccc1Cl)c1ccccc1C(F)(F)F` (stereo not drawn) [Example 1-400, N-[2-(2-chlorophenyl)-2-fluoroethyl]-2-(trifluoromethyl)benzamide], in data set [2], the mortality at 20 ppm stood at 100%.
